Measured values: patent US20250171496A1, “FUSION PEPTIDE FOR REGULATING ACTIVATION OF MAM AND USE THEREOF” (UIF (University Industry Foundation), Yonsei University, priority 2023, published 2025)
Where no end group is shown, it is not given here.

Tests used:
Hela cells = assay: SPLICS (ER-mitochondria split-GFP) proximity assay; type: cell-based; conditions: Hela cells transfected with SPLICS vector, 10 mM EtOH, peptide 20 μM, 1 hour, vs control (DW)
From the text: To this end, MAM regulatory activity was verified using the SPLICS (ER-mitochondria split-GFP) system, which allows observation of the proximity between intracellular organelles through fluorescence emission. The SPLICS system is a system that can efficiently image the proximity of intracellular organelles based on the principle that split-GFP fluorescence is emitted when two organelles are within approximately 10 to 40 nm of each other. As the two organelles approach, complementation of GFP occurs, resulting in fluorescence at the junction. It is to be noted that increased contact between ER and mitochondria may lead to cellular stress and dysfunction.
First, to observe the change in the distance between the ER and mitochondria due to treatment with the fusion peptides, Hela cells were transfected with the SPLICS vector. Afterwards, the HeLa cells were treated with the fusion peptides and the area (%) of GFP fluorescence relative to the total area per cell was measured. […] That is to say, it was observed from the decrease in green fluorescence in the groups treated with the fusion peptides of the present disclosure that the two organelles were moving apart from each other.

HUVEC cells = assay: MTT assay (cell proliferation); type: cell-based, human; conditions: 0-300 μM, up to 72 hours
Procedure: Human umbilical vein endothelial cells (HUVECs) were cultured in EBM-2 medium supplemented with FBS (2%, v/v) and antibiotics. After seeding the cells in a 96-well plate at 3,000 cells/well and culturing the same, they were treated with the prepared fusion peptides on the next day at concentrations of 0, 100, 200, and 300 μM. After 0, 24, 48, and 72 hours, MTT solution (2 mg/mL) was treated at a concentration of 0.4 mg/mL. After culturing for 3 hours, the medium was removed and the cells were treated with DMSO. Then, fluorescence was measured at 540 nm.
Afterwards, 3-[4,5-dimethylthiazol-2-yl]-2,5-diphenyltetrazolium bromide (MTT) assay, which allows observation of cell proliferation by fluorescence, was performed to confirm the optimal concentration of the fusion peptide 4 in the HUVEC cells.

ApoE knockout mice = assay: Atherosclerosis animal model (high-cholesterol diet, ApoE knockout mice); type: in vivo; conditions: 50 mg/kg intraperitoneally every 2 days for 8 weeks
Procedure: Animal experiment was performed in accordance with the guidelines approved by the Institutional Animal Care and Use Committee of Yonsei University (IACUC-A-202404-1847-02). 6-week-old male ApoE knockout B6.KOR/StmSlc-Apoeshl mice were housed in a specific pathogen-free system with a 12-hour light-dark cycle with free access to food and water, and randomly divided into three groups (control, positive control, and test groups). Then, the sample was injected intraperitoneally to the control group (vehicle), the positive control group (CTS (cryptotanshinone), 20 mg/kg), and the test group (peptide, 50 mg/kg) once every two days for 8 weeks while feeding the mice with a high-cholesterol diet until the end of the experiment (for 8 weeks).
After sacrificing the mice, PBS perfusion was performed through the left ventricle, and the heart, artery, and blood were obtained. The artery was cut along the bifurcation of the iliac artery, spread out, fixed with pins, and fixed in 10% formaldehyde for 16 hours. After staining with Oil-Red-O for 16 hours, the samples were washed with PBS and images were obtained using a microscope (NS-6T, China).
The fusion peptide 4 (50 mg/kg) was injected intraperitoneally every 2 days for 8 weeks into an animal model of atherosclerosis (high-cholesterol diet, ApoE knockout mice).

YARVRRRGPRR-DTETKME (YARVRRRGPRRDTETKME) [fusion peptide 3]
GFP fluorescence signal (area of GFP fluorescence relative to the total area per cell), SPLICS (Hela cells): significant decrease in fluorescence signals

YARVRRRGPRR-GGG-FSTAADGQTQ (YARVRRRGPRRGGGFSTAADGQTQ) [fusion peptide 2, CPP Hph-1 linked to Peptide 2 (GGG-…), GRP75 motif]
GFP fluorescence signal (area of GFP fluorescence relative to the total area per cell), SPLICS (Hela cells): significant decrease in fluorescence signals

YARVRRRGPRR-FSTAADGQTQ (YARVRRRGPRRFSTAADGQTQ) [fusion peptide 1]
GFP fluorescence signal (area of GFP fluorescence relative to the total area per cell), SPLICS (Hela cells): significant decrease in fluorescence signals

YARVRRRGPRRRSIYYLGIGPT [fusion peptide 4, YARVRRRGPRR-RSIYYLGIGPT]
cell proliferation (MTT) (HUVEC cells): no inhibition of cell proliferation was observed even at concentrations of 100-200 μM | body weight (ApoE knockout mice): did not affect the body weight
